Data on 24 molecules can be found in patent US9067943B2, “[1,2,3]triazolo[4,5-D]pyrimidine derivatives” (priority 2011, dated 2015).

Where two headings read alike, the source gives them in different places.

In one test the target is T1, human CB1 receptors (Homo sapiens, UniProt P21554).
T1 construct: expressed in transfected cells; host or cells: CHO cells
The test can be described thus: cAMP assay. The format is cell-based. The protocol:
(§1) CHO cells expressing human CB1 or CB2 receptors are seeded 17-24 hours prior to the experiment 50.000 cells per well in a black 96 well plate with flat clear bottom (Corning Costar #3904) in DMEM (Invitrogen No. 31331), 1×HT supplement, with 10% fetal calf serum and incubated at 5% CO2 and 37° C. in a humidified incubator. The growth medium was exchanged with Krebs Ringer Bicarbonate buffer with 1 mM IBMX and incubated at 30° C. for 30 min. Compounds were added to a final assay volume of 100 μl and incubated for 30 min at 30° C. Using the cAMP-Nano-TRF detection kit the assay (Roche Diagnostics) was stopped by the addition of 50 μl lysis reagent (Tris, NaCl, 1.5% Triton X100, 2.5% NP40, 10% NaN3) and 50 μl detection solutions (20 μM mAb Alexa700-cAMP 1:1, and 48 μM Ruthenium-2-AHA-cAMP) and shaken for 2 h at room temperature. The time-resolved energy transfer is measured by a TRF reader (Evotec Technologies GmbH), equipped with a ND:YAG laser as excitation source. The plate is measured twice with the excitation at 355 nm and at the emission with a delay of 100 ns and a gate of 100 ns, total exposure time 10 s at 730 (bandwidth 30 nm) or 645 nm (bandwidth 75 nm), respectively. The FRET signal is calculated as follows: FRET=T730-Alexa730-P(T645-B645) with P=Ru730-B730/Ru645-B645, where T730 is the test well measured at 730 nM, T645 is the test well measured at 645 nm, B730 and B645 are the buffer controls at 730 nm and 645 nm, respectively. cAMP content is determined from the function of a standard curve spanning from 10 μM to 0.1 nM cAMP.
(§2) EC50 values were determined using Activity Base analysis (ID Business Solution, Limited). The EC50 values for a wide range of cannabinoid agonists generated from this assay were in agreement with the values published in the scientific literature.
In general terms: Cyclic AMP is a second messenger, typically raised through Gs and lowered through Gi signalling.

The target of the next test is T2, human CB2 receptors (Homo sapiens, UniProt P34972).
T2 construct: expressed in transfected cells; host or cells: CHO cells
The test can be described thus: cAMP assay. The format is cell-based. The protocol: as §1, §2

Where [1] appears, read: functional cAMP assay, CHO cells expressing human CB2, read-out: human CB2 EC50.

Broadly, the EC50 is the concentration that produces a half-maximal response.

T2 sequence (P34972 whole entry): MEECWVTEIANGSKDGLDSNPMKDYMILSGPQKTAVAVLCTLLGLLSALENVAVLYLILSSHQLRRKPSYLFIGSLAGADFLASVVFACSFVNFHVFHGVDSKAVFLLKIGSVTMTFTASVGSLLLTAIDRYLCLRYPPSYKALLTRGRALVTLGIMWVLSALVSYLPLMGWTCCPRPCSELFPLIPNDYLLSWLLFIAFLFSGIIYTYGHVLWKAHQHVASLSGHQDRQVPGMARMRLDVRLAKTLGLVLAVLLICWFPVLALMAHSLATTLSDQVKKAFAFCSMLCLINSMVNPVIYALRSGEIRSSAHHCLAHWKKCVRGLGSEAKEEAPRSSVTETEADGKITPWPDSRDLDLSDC
T1 sequence (P21554 whole entry): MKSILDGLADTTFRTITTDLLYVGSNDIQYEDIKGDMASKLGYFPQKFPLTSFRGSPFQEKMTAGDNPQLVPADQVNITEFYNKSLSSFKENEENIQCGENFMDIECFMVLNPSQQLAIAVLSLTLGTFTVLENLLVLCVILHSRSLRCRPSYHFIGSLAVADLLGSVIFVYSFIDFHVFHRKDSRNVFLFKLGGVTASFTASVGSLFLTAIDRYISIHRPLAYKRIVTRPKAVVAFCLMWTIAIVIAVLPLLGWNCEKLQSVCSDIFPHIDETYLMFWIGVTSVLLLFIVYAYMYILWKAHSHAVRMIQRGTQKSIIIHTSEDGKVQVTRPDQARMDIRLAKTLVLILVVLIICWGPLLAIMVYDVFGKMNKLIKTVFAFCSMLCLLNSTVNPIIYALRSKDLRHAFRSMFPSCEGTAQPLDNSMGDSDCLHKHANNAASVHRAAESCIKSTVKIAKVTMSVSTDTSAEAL

For the molecule `CC(C)(C)c1nc(N2CCC(F)(F)C2)c2nn(Cc3nnnn3C3CC3)nc2n1` [Example 92, 5-tert-Butyl-2-(1-cyclopropyl-1H-tetrazol-5-ylmethyl)-7-(3,3-difluoro-pyrrolidin-1-yl)-2H-[1,2,3]triazolo[4,5-d]pyrimidine], the EC50 stood at 1580 nM at human CB1 receptors and 5 nM on human CB2 receptors.
For `CC(C)(C)c1nc(N2CCC(F)(F)C2)c2nn(CCc3ccncc3)nc2n1` [Example 59, 5-tert-Butyl-7-(3,3-difluoro-pyrrolidin-1-yl)-2-(2-pyridin-4-yl-ethyl)-2H-[1,2,3]triazolo[4,5-d]pyrimidine], in that order: more than 10000 nM and 3.5 nM.
Regarding `CC(C)Oc1nc(N2CC[C@H](O)C2)c2nn(Cc3ccccc3Cl)nc2n1` [Example 111, (S)-1-[2-(2-Chloro-benzyl)-5-isopropoxy-2H-[1,2,3]triazolo[4,5-d]pyrimidin-7-yl]-pyrrolidin-3-ol], the EC50 at human CB1 receptors is more than 10000 nM; at human CB2 receptors (setting [1]) it was 265 nM.
With `CC(C)(C)c1nc(N2CCC(F)(F)C2)c2nn(CCc3cccnc3)nc2n1` [Example 58, 5-tert-Butyl-7-(3,3-difluoro-pyrrolidin-1-yl)-2-(2-pyridin-3-yl-ethyl)-2H-[1,2,3]triazolo[4,5-d]pyrimidine], the half-maximal effective concentration (EC50) on human CB1 receptors was more than 10000 nM; on human CB2 receptors it was 4.3 nM.
For `Cn1nnnc1Cn1nc2nc(OCC(C)(C)C)nc(N3CCC(F)(F)C3)c2n1` [Example 112, 7-(3,3-Difluoro-pyrrolidin-1-yl)-5-(2,2-dimethyl-propoxy)-2-(1-methyl-1H-tetrazol-5-ylmethyl)-2H-[1,2,3]triazolo[4,5-d]pyrimidine], in that order: more than 10000 nM and 30.9 nM.
In the same order, the values of `Cn1nnnc1Cn1nc2nc(C(C)(C)C)nc(N3CC[C@H](O)C3)c2n1` [Example 88, (S)-1-[5-tert-Butyl-2-(1-methyl-1H-tetrazol-5-ylmethyl)-2H-[1,2,3]triazolo[4,5-d]pyrimidin-7-yl]-pyrrolidin-3-ol] are more than 10000 nM and 52.1 nM.
`CC(=O)N[C@H]1CCN(c2nc(OCC(C)(C)C)nc3nn(Cc4ccccc4Cl)nc23)C1` [Example 134, N—{(S)-1-[2-(2-Chloro-benzyl)-5-(2,2-dimethyl-propoxy)-2H-[1,2,3]triazolo[4,5-d]pyrimidin-7-yl]-pyrrolidin-3-yl}-acetamide]: the EC50 on human CB1 receptors was more than 10000 nM; at human CB2 receptors (setting [1]), 682 nM.
Consider `CC(C)(C)c1nc(N2CC[C@@](C)(O)C2)c2nn(Cc3ncccc3Cl)nc2n1` [Example 127-b, (R)-1-[5-tert-Butyl-2-(3-chloro-pyridin-2-ylmethyl)-2H-[1,2,3]triazolo[4,5-d]pyrimidin-7-yl]-3-methyl-pyrrolidin-3-ol], for which the EC50 was found to be 609 nM at human CB1 receptors and 11.9 nM at human CB2 receptors.
Consider `Cn1nncc1Cn1nc2nc(C(C)(C)C)nc(N3CC(F)(F)C(F)(F)C3)c2n1` [Example 104, 5-tert-Butyl-2-(3-methyl-3H-[1,2,3]triazol-4-ylmethyl)-7-(3,3,4,4-tetrafluoro-pyrrolidin-1-yl)-2H-[1,2,3]triazolo[4,5-d]pyrimidine], for which the EC50 on human CB1 receptors is more than 10000 nM; at human CB2 receptors, 10.1 nM.
In the same order, the values of `CC(C)(C)c1nc(N2CCC(F)(F)C2)c2nn(Cc3cccc(Cl)c3Cl)nc2n1` [Example 9, 5-tert-Butyl-2-(2,3-dichloro-benzyl)-7-(3,3-difluoro-pyrrolidin-1-yl)-2H-[1,2,3]triazolo[4,5-d]pyrimidine] are more than 10000 nM and 3.4 nM.
In the same order, the values of `CC(C)(C)c1nc(N2CCC(F)(F)C2)c2nn(C3CS(=O)(=O)C3)nc2n1` [Example 62, 5-tert-Butyl-7-(3,3-difluoro-pyrrolidin-1-yl)-2-(1,1-dioxo-1λ6-thietan-3-yl)-2H-[1,2,3]triazolo[4,5-d]pyrimidine] are more than 10000 nM and 5.8 nM.
In the same order, the values of `Cc1nonc1Cn1nc2nc(NC(C)(C)C)nc(N3CCC(F)(F)C3)c2n1` [Example 140, tert-Butyl-[7-(3,3-difluoro-pyrrolidin-1-yl)-2-(4-methyl-furazan-3-ylmethyl)-2H-[1,2,3]triazolo[4,5-d]pyrimidin-5-yl]-amine] are more than 10000 nM and 6.1 nM.
With `CC(C)(C)c1nc(N2CCC(F)(F)C2)c2nn(Cc3cccnc3Cl)nc2n1` [Example 34, 5-tert-Butyl-2-(2-chloro-pyridin-3-ylmethyl)-7-(3,3-difluoro-pyrrolidin-1-yl)-2H-[1,2,3]triazolo[4,5-d]pyrimidine], the EC50 at human CB1 receptors is more than 10000 nM; at human CB2 receptors it was 0.5 nM.
For `C[C@H](Oc1nc(N2CCC(F)(F)C2)c2nn(CCC(F)(F)F)nc2n1)C(F)(F)F` [Example 122, 7-(3,3-Difluoro-pyrrolidin-1-yl)-5-((S)-2,2,2-trifluoro-1-methyl-ethoxy)-2-(3,3,3-trifluoro-propyl)-2H-[1,2,3]triazolo[4,5-d]pyrimidine], in that order: more than 10000 nM and 8.4 nM.
In the same order, the values of `Cc1nonc1Cn1nc2nc(O[C@@H](C)C(F)(F)F)nc(N3CCC(F)(F)C3)c2n1` [Example 121, 7-(3,3-Difluoro-pyrrolidin-1-yl)-2-(4-methyl-furazan-3-ylmethyl)-5-((S)-2,2,2-trifluoro-1-methyl-ethoxy)-2H-[1,2,3]triazolo[4,5-d]pyrimidine] are more than 10000 nM and 7.5 nM.
For `CC(C)(C)c1nc(N2CCC(F)(F)C2)c2nn(Cc3ncccc3Cl)nc2n1` [Example 36, 5-tert-Butyl-2-(3-chloro-pyridin-2-ylmethyl)-7-(3,3-difluoro-pyrrolidin-1-yl)-2H-[1,2,3]triazolo[4,5-d]pyrimidine], in that order: 20.3 nM and 0.2 nM.
With `CC(C)(C)c1nc(N2CCC(F)(F)C2)c2nn(Cc3ccccc3Br)nc2n1` [Example 21, 2-(2-Bromo-benzyl)-5-tert-butyl-7-(3,3-difluoro-pyrrolidin-1-yl)-2H-[1,2,3]triazolo[4,5-d]pyrimidine], the EC50 came out at 183 nM at human CB1 receptors and 0.1 nM at human CB2 receptors.
In the same order, the values of `Cc1nnc(Cn2nc3nc(C(C)(C)C)nc(N4CCC(F)(F)C4)c3n2)n1C` [Example 83, 5-tert-Butyl-7-(3,3-difluoro-pyrrolidin-1-yl)-2-(4,5-dimethyl-4H-[1,2,4]triazol-3-ylmethyl)-2H-[1,2,3]triazolo[4,5-d]pyrimidine] are more than 10000 nM and 6.1 nM.
Regarding `Cn1ncnc1Cn1nc2nc(C(C)(C)C)nc(N3CC[C@H](O)C3)c2n1` [Example 89, (S)-1-[5-tert-Butyl-2-(2-methyl-2H-[1,2,4]triazol-3-ylmethyl)-2H-[1,2,3]triazolo[4,5-d]pyrimidin-7-yl]-pyrrolidin-3-ol], the EC50 at human CB1 receptors is more than 10000 nM; at human CB2 receptors (setting [1]), 372 nM.
For `Cc1nonc1Cn1nc2nc(C(C)(C)C)nc(N3CC[C@H](O)C3)c2n1` [Example 73, (S)-1-[5-tert-Butyl-2-(4-methyl-furazan-3-ylmethyl)-2H-[1,2,3]triazolo[4,5-d]pyrimidin-7-yl]-pyrrolidin-3-ol], the EC50 was more than 10000 nM on human CB1 receptors and 7.1 nM at human CB2 receptors.
Turning to `CC(=O)N[C@H]1CCN(c2nc(NC(C)(C)C)nc3nn(Cc4ccccc4Cl)nc23)C1` [Example 144, N—{(S)-1-[5-tert-Butylamino-2-(2-chloro-benzyl)-2H-[1,2,3]triazolo[4,5-d]pyrimidin-7-yl]-pyrrolidin-3-yl}-acetamide], the EC50 on human CB1 receptors is more than 10000 nM; on human CB2 receptors (setting [1]) it was 1950 nM.
On to `CN(C)c1c(Cl)cncc1Cn1nc2nc(C(C)(C)C)nc(N3CCC(F)(F)C3)c2n1` [Example 71, {3-[5-tert-Butyl-7-(3,3-difluoro-pyrrolidin-1-yl)-[1,2,3]triazolo[4,5-d]pyrimidin-2-ylmethyl]-5-chloro-pyridin-4-yl}-dimethyl-amine], for which the values for the EC50 on human CB1 receptors and at human CB2 receptors were 105 nM and 1.4 nM, respectively.
As for `CC(C)(C)c1nc(N2CCC(F)(F)C2)c2nn(CC(F)(F)F)nc2n1` [Example 18, 5-tert-Butyl-7-(3,3-difluoro-pyrrolidin-1-yl)-2-(2,2,2-trifluoro-ethyl)-2H-[1,2,3]triazolo[4,5-d]pyrimidine], the EC50 is more than 10000 nM at human CB1 receptors and 1.4 nM at human CB2 receptors.
In the same order, the values of `CC(C)(C)c1nc(N2CC[C@H](O)C2)c2nn(Cc3ccccc3S(C)(=O)=O)nc2n1` [Example 80, (S)-1-[5-tert-Butyl-2-(2-methanesulfonyl-benzyl)-2H-[1,2,3]triazolo[4,5-d]pyrimidin-7-yl]-pyrrolidin-3-ol] are more than 10000 nM and 10.3 nM.
